The text below walks through data of patent US12492188B2, “1H-benzo[D]imidazole derivatives as TLR9 inhibitors for the treatment of fibrosis” (BRISTOL-MYERS SQUIBB COMPANY, priority 2020, dated 2025).

Like-named read-outs stand apart in the source and are kept apart here.

Common to all, as to format: cell-based
One assay concerns the target T1, human TLR8 (Homo sapiens, UniProt Q9NR97).
T1 construct: host or cells: HEK-Blue cells (HEK293-derived reporter line)
T1 sequence (Q9NR97 27-1041): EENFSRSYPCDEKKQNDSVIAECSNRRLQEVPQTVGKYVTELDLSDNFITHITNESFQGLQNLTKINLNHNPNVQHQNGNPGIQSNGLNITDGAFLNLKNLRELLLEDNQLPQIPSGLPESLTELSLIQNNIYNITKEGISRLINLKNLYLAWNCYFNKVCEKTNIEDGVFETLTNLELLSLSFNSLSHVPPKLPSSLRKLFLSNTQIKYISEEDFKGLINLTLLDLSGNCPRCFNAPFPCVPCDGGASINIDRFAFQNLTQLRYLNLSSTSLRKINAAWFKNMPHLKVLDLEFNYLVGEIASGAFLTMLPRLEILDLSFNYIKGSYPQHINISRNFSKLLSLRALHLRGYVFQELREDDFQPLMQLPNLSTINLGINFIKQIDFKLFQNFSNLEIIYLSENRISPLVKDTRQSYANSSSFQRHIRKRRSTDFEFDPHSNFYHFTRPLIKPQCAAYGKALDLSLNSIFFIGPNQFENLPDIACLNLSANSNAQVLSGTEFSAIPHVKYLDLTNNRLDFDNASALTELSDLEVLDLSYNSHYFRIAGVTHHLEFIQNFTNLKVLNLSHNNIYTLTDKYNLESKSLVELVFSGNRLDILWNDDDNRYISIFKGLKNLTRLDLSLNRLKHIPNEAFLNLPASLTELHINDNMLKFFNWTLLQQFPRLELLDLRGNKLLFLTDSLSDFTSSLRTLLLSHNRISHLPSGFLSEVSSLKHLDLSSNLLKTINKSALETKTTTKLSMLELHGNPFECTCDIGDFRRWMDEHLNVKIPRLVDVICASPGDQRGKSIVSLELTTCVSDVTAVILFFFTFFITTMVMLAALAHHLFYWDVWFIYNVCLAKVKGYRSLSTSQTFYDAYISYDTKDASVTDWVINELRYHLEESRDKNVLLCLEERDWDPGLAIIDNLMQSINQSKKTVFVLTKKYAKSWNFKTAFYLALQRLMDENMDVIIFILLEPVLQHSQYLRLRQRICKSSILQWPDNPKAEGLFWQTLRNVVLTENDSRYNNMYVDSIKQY
Nature of the assay: TLR8 inhibition reporter assay (HEK-Blue cells, secreted embryonic alkaline phosphatase reporter). Conditions: HEK-Blue cells overexpressing human TLR8, stimulated with R848 15.9 μM; read-out: TLR 8 IC50. The gist of the method:
(§1)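 HEK-Blue cells overexpressing the respective receptor, with an NF-κB/AP-1-driven SEAP reporter, were pre-treated with compound (0.05 nM–50 μM) for 30 min at room temperature. Stimulation used gardiquimod 7.5 μM (TLR7), R848 15.9 μM (TLR8) or ODN2006 5 nM (TLR9); SEAP was read after 22 h at 37 °C as percent inhibition.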

A further assay deals with T2, human TLR9 (Homo sapiens, UniProt Q9NR96).
T2 construct: host or cells: HEK-Blue cells (HEK293-derived reporter line)
T2 sequence (Q9NR96 26-1032): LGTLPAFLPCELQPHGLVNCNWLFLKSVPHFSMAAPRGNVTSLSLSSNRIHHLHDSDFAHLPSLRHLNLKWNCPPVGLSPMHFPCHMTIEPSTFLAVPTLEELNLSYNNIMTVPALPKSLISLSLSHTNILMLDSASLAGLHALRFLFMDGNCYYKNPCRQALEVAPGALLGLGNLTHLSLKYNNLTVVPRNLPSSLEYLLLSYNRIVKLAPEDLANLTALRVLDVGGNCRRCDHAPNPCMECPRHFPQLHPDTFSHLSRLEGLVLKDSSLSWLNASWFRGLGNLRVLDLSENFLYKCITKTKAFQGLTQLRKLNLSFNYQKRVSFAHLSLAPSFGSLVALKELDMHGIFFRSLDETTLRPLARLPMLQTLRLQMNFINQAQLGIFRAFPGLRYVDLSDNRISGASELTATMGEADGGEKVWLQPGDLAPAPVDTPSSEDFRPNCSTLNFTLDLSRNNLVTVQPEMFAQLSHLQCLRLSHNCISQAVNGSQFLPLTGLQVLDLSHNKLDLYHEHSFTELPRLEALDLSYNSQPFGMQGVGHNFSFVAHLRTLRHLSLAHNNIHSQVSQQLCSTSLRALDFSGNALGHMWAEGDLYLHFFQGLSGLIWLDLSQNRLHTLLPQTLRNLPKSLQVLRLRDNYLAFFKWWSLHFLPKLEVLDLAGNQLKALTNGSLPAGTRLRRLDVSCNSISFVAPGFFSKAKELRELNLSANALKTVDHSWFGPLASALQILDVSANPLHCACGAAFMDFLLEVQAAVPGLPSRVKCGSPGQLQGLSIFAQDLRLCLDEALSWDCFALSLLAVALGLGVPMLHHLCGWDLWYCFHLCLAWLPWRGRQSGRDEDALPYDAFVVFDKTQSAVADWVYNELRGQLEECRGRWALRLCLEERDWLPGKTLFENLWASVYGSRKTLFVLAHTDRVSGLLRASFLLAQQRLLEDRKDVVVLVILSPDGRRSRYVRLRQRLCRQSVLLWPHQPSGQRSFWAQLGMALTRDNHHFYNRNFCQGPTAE
Nature of the assay: TLR9 inhibition reporter assay (HEK-Blue cells, secreted embryonic alkaline phosphatase reporter). The method, boiled down: as §1

For a further assay, the target named is T3, human TLR7 (Homo sapiens, UniProt Q9NYK1).
T3 construct: host or cells: HEK-Blue cells (HEK293-derived reporter line)
T3 sequence (Q9NYK1 27-1049): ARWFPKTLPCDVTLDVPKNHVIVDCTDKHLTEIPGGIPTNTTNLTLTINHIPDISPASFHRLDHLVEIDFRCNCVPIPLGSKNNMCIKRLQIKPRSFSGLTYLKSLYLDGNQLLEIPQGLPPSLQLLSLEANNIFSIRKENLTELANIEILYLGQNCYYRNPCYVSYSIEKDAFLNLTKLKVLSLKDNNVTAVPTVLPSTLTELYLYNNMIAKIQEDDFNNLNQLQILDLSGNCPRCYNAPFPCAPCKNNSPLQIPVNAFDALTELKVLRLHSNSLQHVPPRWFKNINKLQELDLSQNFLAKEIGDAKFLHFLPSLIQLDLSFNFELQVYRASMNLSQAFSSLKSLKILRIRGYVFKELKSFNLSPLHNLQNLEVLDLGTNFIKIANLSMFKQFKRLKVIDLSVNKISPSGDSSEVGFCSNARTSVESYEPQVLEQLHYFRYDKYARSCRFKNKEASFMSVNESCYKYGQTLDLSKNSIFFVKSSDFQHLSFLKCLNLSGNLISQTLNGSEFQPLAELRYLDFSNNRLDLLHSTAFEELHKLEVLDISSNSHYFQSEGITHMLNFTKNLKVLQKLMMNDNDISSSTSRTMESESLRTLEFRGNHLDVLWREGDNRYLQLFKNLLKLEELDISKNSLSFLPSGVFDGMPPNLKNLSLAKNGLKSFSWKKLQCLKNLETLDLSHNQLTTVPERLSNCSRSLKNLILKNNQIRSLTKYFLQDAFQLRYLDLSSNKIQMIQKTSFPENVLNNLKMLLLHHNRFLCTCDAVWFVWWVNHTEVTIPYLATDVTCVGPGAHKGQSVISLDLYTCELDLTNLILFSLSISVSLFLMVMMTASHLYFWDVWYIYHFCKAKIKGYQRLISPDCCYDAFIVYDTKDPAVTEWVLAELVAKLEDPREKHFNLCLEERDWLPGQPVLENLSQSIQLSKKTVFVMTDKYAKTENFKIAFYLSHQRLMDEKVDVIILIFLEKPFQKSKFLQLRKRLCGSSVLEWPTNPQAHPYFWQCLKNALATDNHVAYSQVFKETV
Nature of the assay: TLR7 inhibition reporter assay (HEK-Blue cells, secreted embryonic alkaline phosphatase reporter). The following applies: HEK-Blue cells overexpressing human TLR7, stimulated with gardiquimod 7.5 μM; read-out: TLR 7 IC50. The method, boiled down:
as §1

[1] abbreviates: HEK-Blue cells overexpressing human TLR9, stimulated with ODN2006 5 nM, 22 hour incubation, reporter readout.
Setting [2] is: HEK-Blue cells overexpressing human TLR9, stimulated with ODN2006 5 nM, read-out: TLR 9 IC50.
Setting [3] is: HEK-Blue human TLR9 reporter cells.

Regarding `CC(C)N1C2CCC1CC(N1CCC(c3ccc4nc(-c5ccc(S(C)(=O)=O)cc5)n(C)c4c3F)CC1)C2` (single isomer, unassigned) [Example 103, 7-fluoro-6-(1-(8-isopropyl-8-azabicyclo[3.2.1]octan-3-yl)piperidin-4-yl)-1-methyl-2-(4-(methylsulfonyl)phenyl)-1H-benzo[d]imidazole], the IC50 on human TLR8 was more than 50000 nM; against human TLR9 (setting [1]) it was 54 nM; at human TLR7, 25900 nM.
As to `COc1ccc(-c2nc3c(C)cc(C4CCN(C5CCN(C(C)C)CC5)CC4)cc3[nH]2)cc1OC` [Example 11, 2-(3,4-dimethoxyphenyl)-6-(1′-isopropyl-[1,4′-bipiperidin]-4-yl)-4-methyl-1H-benzo[d]imidazole], the figures for the IC50 at human TLR8, at human TLR9 (setting [1]) and on human TLR7 were more than 50000 nM, 33 nM and 5000 nM, respectively.
Take `Cn1c(-c2ccc(S(C)(=O)=O)cc2)nc2cc(C3CCN(C4CCN(CC5COC5)CC4)CC3)cc(F)c21` [Example 204, 7-fluoro-1-methyl-2-(4-(methylsulfonyl)phenyl)-5-(1′-(oxetan-3-ylmethyl)-[1,4′-bipiperidin]-4-yl)-1H-benzo[d]imidazole]: the IC50 at human TLR8 was more than 50000 nM; at human TLR9 it was 780 nM; on human TLR9 (setting [2]), 781 nM; on human TLR7, more than 50000 nM.
Regarding `Cn1c(-c2ccc(S(C)(=O)=O)cc2)nc2c(F)cc(C3CCN(C4CCCN(C5CCOCC5)CC4)CC3)cc21` (stereo not shown) [Example 301, 4-fluoro-1-methyl-2-(4-(methylsulfonyl)phenyl)-6-(1-(1-(tetrahydro-2H-pyran-4-yl)azepan-4-yl)piperidin-4-yl)-1H-benzo[d]imidazole], the IC50 was more than 50000 nM at human TLR8, 48 nM on human TLR9 (setting [2]), 48 nM on human TLR9 (setting [3]) and 3100 nM at human TLR7.
Regarding `Cc1cc(-c2ccc(C3CCN(C(C)C)CC3)nc2)cc2c1nc(-c1ccc(S(C)(=O)=O)cc1)n2C` [Example 365, 6-(6-(1-isopropylpiperidin-4-yl)pyridin-3-yl)-1,4-dimethyl-2-(4-(methylsulfonyl)phenyl)-1H-benzo[d]imidazole], the figures for the IC50 at human TLR8, against human TLR9 (setting [1]) and at human TLR7 were 14200 nM, 300 nM and 2100 nM, respectively.
`CC(C)CN1CCCC(N2CCC(c3cc(F)c4nc(-c5ccc(S(C)(=O)=O)cc5)n(C)c4c3)CC2)CC1` (stereo not shown) [Example 297, 4-fluoro-6-(1-(1-isobutylazepan-4-yl)piperidin-4-yl)-1-methyl-2-(4-(methylsulfonyl)phenyl)-1H-benzo[d]imidazole]: the IC50 on human TLR8 was more than 50000 nM; on human TLR9 (setting [2]) it was 23 nM; at human TLR9 (setting [3]), 23 nM; at human TLR7, 12500 nM.
With `Cn1c(-c2ccc(S(C)(=O)=O)cc2)nc2c(F)cc(C3CCN(C4CCN(C5CCOCC5)CC4)CC3)cc21` [Example 280, 4-fluoro-1-methyl-2-(4-(methylsulfonyl)phenyl)-6-(1′-(tetrahydro-2H-pyran-4-yl)-[1,4′-bipiperidin]-4-yl)-1H-benzo[d]imidazole], the IC50 was more than 50000 nM at human TLR8, 73 nM against human TLR9, 73 nM at human TLR9 (setting [2]) and 700 nM on human TLR7.
As to `Cn1c(-c2ccc(S(C)(=O)=O)cc2)nc2ccc(C3CCN(C4CC5CCC(C4)N5CC4CC4)CC3)c(F)c21` (stereo not shown) [Example 269, 6-(1-(8-(cyclopropylmethyl)-8-azabicyclo[3.2.1]octan-3-yl)piperidin-4-yl)-7-fluoro-1-methyl-2-(4-(methylsulfonyl)phenyl)-1H-benzo[d]imidazole], the IC50 amounted to 21500 nM on human TLR8, 180 nM against human TLR9, 176 nM at human TLR9 (setting [2]) and 12000 nM on human TLR7.
Turning to `COc1ccc(-c2nc3c(C)cc(C4CCN(C5CC6CCC(C5)N6C5COC5)CC4)cc3n2C)cc1OC` (single isomer, unassigned) [Example 164, 2-(3,4-dimethoxyphenyl)-1,4-dimethyl-6-(1-(8-(oxetan-3-yl)-8-azabicyclo[3.2.1]octan-3-yl)piperidin-4-yl)-1H-benzo[d]imidazole], the IC50 at human TLR8 was more than 25000 nM; at human TLR9, 110 nM; on human TLR9 (setting [2]) it was 109 nM; at human TLR7, more than 25000 nM.
Turning to `COCCN1CCC(N2CCC(c3cc(F)c4c(c3)nc(-c3ccc(S(C)(=O)=O)cc3)n4C)CC2)CC1` [Example 208, 7-fluoro-5-(1′-(2-methoxyethyl)-[1,4′-bipiperidin]-4-yl)-1-methyl-2-(4-(methylsulfonyl)phenyl)-1H-benzo[d]imidazole], the IC50 on human TLR8 is more than 50000 nM; on human TLR9, 940 nM; on human TLR9 (setting [2]), 937 nM; on human TLR7, more than 50000 nM.
